A short description of this experiment: Antagonist activity at CCR1 receptor in human THP1 cells assessed as inhibition of MIP-1alpha-induced chemotaxis after 2 hrs by fluorescence assay.

For one molecule, IC50 results are on record in BindingDB's records for doi:10.1016/j.bmcl.2012.12.095 (Astrazeneca, 2013).

With `CC(=O)Nc1ccc(O)cc1OC[C@@H](N)CN1CCC2(CC1)Cc1ccccc1O2`, the half-maximal inhibitory concentration (IC50) worked out at 68 nM.

The term IC50 denotes the concentration that inhibits the measured activity by half.
